Consider 3 molecules from patent publication US20230181496A1, “USE OF NOREPINEPHRINE OR BETA-ADRENERGIC RECEPTOR INHIBITOR IN PREPARATION OF MEDICAMENT FOR NERVE INJURY REPAIR IN DIABETES” (Qingdao Eye Hospital of Shandong First Medical University …, priority 2021, published 2023).

Test [1] concerns Trigeminal ganglion neurons. Briefly: Growth of trigeminal ganglion neurons cultured with TKE2 culture supernatants (βIII-Tubulin staining, Neuron J length). The test is classed as cell-based, mice. To be noted: supernatant added to neurons for 24 h. The procedure: Trigeminal ganglion neurons isolated from normal mice were mixed with a mixture of 40 U/mL papain, 3 mg/mL collagenase, and 4.7 mg/mL dispase II, digested and subjected to gradient centrifugation with percoll (upper layer: 12.5% percoll; lower layer 28% percoll), and isolated to obtain neurons (as describedin the prior art: Malin, S. A., Davis, B. M. & Molliver, D. C. Production of dissociated sensory neuron cultures and considerations for their use in studying neuronal function and plasticity. Nat Protoc 2, 152-160 (2007).). The neurons obtained were cultured on a laminin-coated glass slide overnight. TKE2 culture supernatants under different conditions were added to the neurons and cultured for 24 h; after βIII-Tubulin staining, the length of neuron was analyzed and calculated by Neuron J (after the relative length was analyzed by the software, it was calculated with the control as 1.0).

The subject of test [2] is diabetic mice. Briefly: Corneal epithelial repair after 2 mm corneal epithelium scraping (sodium fluorescein staining). The test is classed as in vivo.
Test [3] deals with diabetic mice. Briefly: Corneal sensitivity after corneal epithelium scraping (Cochet-Bonnet aesthesiometer). Type of test: in vivo.
Test [4] deals with diabetic mice. Briefly: Corneal nerve regeneration (βIII-tubulin staining, confocal microscope). Type of test: in vivo. The text has this:
Animals were STZ-induced type I diabetic mice (constructedas describedin the prior art: Lingling, Yang, Guohu, Di, Xia, & Qi, et al. (2014). Substance P promotes diabetic corneal epithelial wound healing through molecular mechanisms mediated via the neurokinin-1 receptor. Diabetes, 63(12), 4262-4274.) and their normal controls. Laboratory mice had no corneal defect, neovascularization, or conjunctival injury.
Cornea of diabetic mice and their control mice were subjected to βIII-tubulin staining (as described in the following reference: Wang X, Li W, Zhou Q, et al. MANF Promotes Diabetic Corneal Epithelial Wound Healing and Nerve Regeneration by Attenuating Hyperglycemia-Induced Endoplasmic Reticulum Stress. 2020.), and nerve regeneration was observed under a confocal microscope.
The cornea of diabetic mice and their control mice were stained with βIII-tubulin, and nerve regeneration was observed under a confocal microscope.

For test [5], the system named is diabetic mice. Briefly: Expression of NGF and GDNF in corneal epithelium (mRNA detection and immunofluorescence staining). Type of test: in vivo. To be noted: diabetic mice dropped in eyes with β2-adrenergic receptor antagonist. The text has this:
mRNA was extracted from the corneal epithelia of the diabetic mice and the diabetic mice treated with β2-adrenergic receptor antagonist; meanwhile, expression levels of NGF and GDNF in epithelial cells were detected according to the example, and expression levels of NGF and GDNF in epithelia of the diabetic mice and the diabetic mice dropped in eyes with β2-adrenergic receptor antagonist were detected by immunofluorescence staining.

A further test has as its system TKE2 cells. Briefly: Expression of neurotrophic factors NGF and GDNF in TKE2 cells (qPCR and ELISA). Conditions: 24 h. Type of test: cell-based, mouse. The procedure: TKE2 cells cultured under different conditions were collected for mRNA extraction, and their culture supernatants were collected; after qPCR and ELISA, expression levels of neurotrophic factors NGF and GDNF were obtained, respectively. Herein, primers for the detection of expression of NGF and GDNF by qPCR were as follows: The reaction system was as follows: 2×SYBR: 5 μL; upstream primer: 0.3 μL; downstream primer: 0.3 μL; RNase-free water: 2.4 μL; cDNA: 2 μL; total: 10 μL; The reaction program was as follows: PCR initial denaturation: 95° C. for 2 min; two-step program: 40 cycles of 95° C. for 5 s and 60° C. for 10 s. The ELISA was conducted by ELISA Kit for mouse NGF (USCN Life Science Inc. Wuhan, China) and mouse GDNF(Abcam, ab171178, Shanghai, China).
(Quantitative PCR measures a nucleic acid by following its amplification.)

The structures appear in SMILES notation. “Also recorded” adds a separate entry of the source.

Regarding `Cc1ccc(OCC(O)C(C)NC(C)C)c2c1CCC2` (centres unmarked) [ICI 118,551], the “reversal of nerve growth inhibition caused by elevated norepinephrine” value in test [1] (TKE2 cells treated with 10 μM NE + 50 μM antagonist for 24 h) is on record as “better reverse nerve growth inhibition”. Further, the “diabetic corneal epithelial repair” value is “significantly promote the diabetic corneal epithelial repair” in the test on diabetic mice [2] (10-100 μM eye drops, 5 μL/eye, 4 times/day, two consecutive days, 0, 24, 36, 48 h after modeling) and “significantly promote the diabetic corneal epithelial repair” in the test with diabetic mice [2] (Example 8: 100 mg/kg intraperitoneally, four consecutive days, scraped at 7th day, 0, 36, 48 h after modeling). Besides, the corneal sensitivity result in the test on diabetic mice [3] (10-100 μM eye drops, 5 μL/eye, 4 times/day, two consecutive days) is recorded as “significantly promote”; in the test on diabetic mice [3] (Example 8: 100 mg/kg intraperitoneally, four consecutive days, scraped at 7th day) it was “recover the sensitivity”. Moreover, the corneal nerve regeneration entry in the test on diabetic mice [4] (diabetic mice treated with β2-adrenergic receptor antagonist eye drops) is on record as “promoting effect; also recorded: effectively promote corneal nerve regeneration”. The “expression of NGF and GDNF in corneal epithelium” value in the test on diabetic mice [5] is “significantly upregulated the expression of NGF and GDNF”. Further, in the test on TKE2 cells (10 μM NE + 50 μM antagonist), the “reversal of downregulated expression of NGF and GDNF caused by NE” value was “reverse the downregulated expression of NGF and GDNF”.

For the molecule `NC[C@H](O)c1ccc(O)c(O)c1` [norepinephrine], the “nerve growth (length of neuron)” value in test [1] (TKE2 cells treated with 10 μM NE for 24 h) is “nerve growth inhibition”. For the same molecule, in the test on TKE2 cells (10 μM NE), the “expression of NGF and GDNF” value is “downregulated expression of NGF and GDNF”.

As to `NCCc1cc(O)c(O)cc1O` [6-OHDA, 6-hydroxydopamine], the corneal nerve regeneration entry in the test with diabetic mice [4] (Example 8: 100 mg/kg intraperitoneally, four consecutive days, 100 mg/kg) was “promoting effect; also recorded: effectively promoted the corneal nerve regeneration”.
